We go through three molecules from ChEMBL document CHEMBL1154386, “Synthesis, characterization and in vitro evaluation of new oxorhenium- and oxotechnetium-CCK4 derivatives as molecular imaging agents for CCK2-receptor targeting” (Eur J Med Chem, 2010).

Starred links: 1 amine or outer side, 2 acyl side, 3 side chain; linkers in the order of their positions; H or OH if unused. Non-standard residues stand in square brackets, D forms with d. Residues, ends and D or L forms follow the SMILES beside them. *: point of attachment. Acetyl(2-STrt) = O=C(CSC(c1ccccc1)(c1ccccc1)c1ccccc1)*; X1 = Oc1ccc(NC(=S)[*:2])cc1N[*:1]; Nle = CCCC[C@H](N)C(=O)O; Ahx = NCCCCCC(=O)O; βAla = NCCC(=O)O

In the experiment the target is T1, Gastrin/cholecystokinin type B receptor (Homo sapiens) (UniProt P32239).
T1 sequence (whole entry): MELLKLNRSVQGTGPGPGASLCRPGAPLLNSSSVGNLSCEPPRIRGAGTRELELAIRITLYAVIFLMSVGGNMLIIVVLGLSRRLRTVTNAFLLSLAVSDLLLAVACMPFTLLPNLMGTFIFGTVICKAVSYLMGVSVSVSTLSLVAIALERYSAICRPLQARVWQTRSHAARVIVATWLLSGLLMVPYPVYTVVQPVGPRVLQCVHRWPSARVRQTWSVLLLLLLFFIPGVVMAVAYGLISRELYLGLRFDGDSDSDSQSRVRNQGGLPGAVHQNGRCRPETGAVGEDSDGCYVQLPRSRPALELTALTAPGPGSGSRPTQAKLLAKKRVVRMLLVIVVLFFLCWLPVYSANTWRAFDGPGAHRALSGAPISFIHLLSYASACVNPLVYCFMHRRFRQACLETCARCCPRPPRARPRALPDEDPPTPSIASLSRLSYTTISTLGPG
Nature of the experiment: Agonist activity at human CCK2 receptor expressed in COS7 cells assessed as stimulation of [3H]inositol phosphate formation. Type of experiment: functional, cell-based. As to conditions: COS-7.

For `CCCC[C@H](NC(=O)[C@H](Cc1c[nH]c2ccccc12)NC(=O)CCCCCNC(=O)CCCCCNC(=S)Nc1ccc(O)c(NC(=O)CNC(=O)CSC(c2ccccc2)(c2ccccc2)c2ccccc2)c1)C(=O)N[C@@H](CC(=O)O)C(=O)N[C@@H](Cc1ccccc1)C(N)=O` ({Acetyl(2-STrt)}-G[X1][Ahx][Ahx]W[Nle]DF-NH2), the ED50 was 5.01 nM.
`CCCC[C@H](NC(=O)[C@H](Cc1c[nH]c2ccccc12)NC(=O)CCNC(=O)CCNC(=S)Nc1ccc(O)c(NC(=O)CNC(=O)CSC(c2ccccc2)(c2ccccc2)c2ccccc2)c1)C(=O)N[C@@H](CC(=O)O)C(=O)N[C@@H](Cc1ccccc1)C(N)=O` ({Acetyl(2-STrt)}-G[X1][βAla][βAla]W[Nle]DF-NH2): the ED50 turned out to be 3.1 nM.
The value for `CCCC[C@H](NC(=O)[C@H](Cc1c[nH]c2ccccc12)NC(=S)Nc1ccc(O)c(NC(=O)CNC(=O)CSC(c2ccccc2)(c2ccccc2)c2ccccc2)c1)C(=O)N[C@@H](CC(=O)O)C(=O)N[C@@H](Cc1ccccc1)C(=O)O` ({Acetyl(2-STrt)}-G[X1]W[Nle]DF-OH) was 84.5 nM.
